Results on two compounds are retold here after patent publication US20020132802A1, “Cytoprotective polycyclic compounds” (Washington Univeristy, priority 2000, published 2002).

pEC50: −log10 of the molar value. Read-outs that look alike come from different tables or passages of the source.

The test system of the test is HT-22 cells. Kind of test: HT-22 Cell Neuroprotection Assay (glutamate-induced cell death, calcein AM viability). The test is classed as cell-based, murine. To be noted: about 16 h exposure. Here is the method:
Method: HT-22 Cell Neuroprotection Assay
HT-22 cells (immortalized hippocampal neurons of murine origin) were maintained in DMEM media (Life Technologies, Inc., Gaitherburg, Md.) supplemented with 10% charcoal-stripped FBS (HyClone Laboratories, Inc., Logan, Utah) and 20 μg/mL gentamycin, according to standard culture conditions.
Cells were plated at a density of 5,000 cells/well in clear-bottomed Nunc 96-well plates (Fisher Scientific, Orlando, Fla.) and allowed to incubate overnight. Steroids dissolved in DMSO were added at concentrations ranging from 0.01-10 μM and were co-administered with glutamate (10 mM or 20 mM). DMSO was used at concentrations of 0.1% vol/vol as a vehicle control and had no discernible effect on cell viability. After about 16 h of glutamate exposure, cells were rinsed with PBS, pH 7.4, and viability was assessed by the addition of 25 μM calcein AM (Molecular Probes, Inc., Eugene, Oreg.) in PBS for 15 min at room temperature. Fluorescence was determined (excitation 485 nm, emission 530 nm) using a fluorescence FL600 microplate reader (Biotek, Winooski, Vt.). Cells that were lysed by addition of methanol were used for blank readings. All data were normalized to % cell death, as calculated by (control value −insult value)/control value×100.

In the case of `C[C@@]12CC=C3c4ccc(O)cc4CC[C@@H]3[C@H]1CC[C@H]2O` [ZYC-12], the pEC50 was 6.28 (co-administered with 10 mM glutamate, read-out: Steroid concentration needed to protect 50% of neurons killed by 10 mM Glutamate ED50) and 5.84 (co-administered with 20 mM glutamate, read-out: Steroid concentration needed to protect 50% of neurons killed by 20 mM Glutamate ED50).

For the compound `C[C@]12CC[C@@H]3c4ccc(O)cc4CC[C@H]3[C@@H]1CCC2=O` [Estrone, estrone, reference compound], the pEC50 (Mus musculus, co-administered with 10 mM glutamate, read-out: Steroid concentration needed to protect 50% of neurons killed by 10 mM Glutamate ED50) was 5.52.
